Tests used:
[1] = biological target: C-Raf Raf-1 (truncated), active (Homo sapiens, UniProt P04049, Y340D/Y341D); assay: C-Raf kinase inhibition (MAPH assay / IMAP assay); details: read-out: Biochemical IC50 C-Raf
In short: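 Truncated active human C-Raf (Y340D/Y341D), room temperature, top inhibitor concentration 10 μM in a dilution series for IC50. MAPH: 57.8 μM myelin basic protein with [γ-33P]ATP, kinase at 10% ATP turnover, 1 h, filter-bound radioactivity. IMAP: 400 nM fluorescent peptide, 20 mM Hepes pH 7.5 with 10 mM MnCl2, kinase at 50% turnover, fluorescence polarization.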

[2] = system: HT-29 tumor cells; assay: Anti-proliferative activity, SRB assay; format: cell-based, human; details: Homo sapiens, HT-29, 72 h, 72 hours exposure, read-out: CELLULAR IC50 HT-29
In short: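 IC50 derived from % inhibition relative to DMSO controls, measured by sulforhodamine B binding (OD570) after TCA fixation. Cells (3,000-15,000 per well) were seeded a day ahead, then treated with graded compound concentrations for 72 hours.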

[3] = biological target: B-Raf delta1-415 (Homo sapiens, UniProt P15056); assay: B-Raf kinase inhibition (MAPH filter plate, 33P-ATP, MEK1 substrate); details: read-out: Biochemical IC50 B-Raf
In short: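 IC50 values come from dilution series (top 10 μM) measured by scintillation counting of 33P-labelled MEK1 retained on H3PO4-washed filters. Reactions ran 1 h at room temperature in pH 7.0 Mops buffer with MgCl2, MnCl2 and DTT, using 12.5 μCi/ml [γ-33P]ATP and B-Raf delta1-415 titrated to 50% turnover.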

B-Raf delta1-415, sequence (P15056 416-766): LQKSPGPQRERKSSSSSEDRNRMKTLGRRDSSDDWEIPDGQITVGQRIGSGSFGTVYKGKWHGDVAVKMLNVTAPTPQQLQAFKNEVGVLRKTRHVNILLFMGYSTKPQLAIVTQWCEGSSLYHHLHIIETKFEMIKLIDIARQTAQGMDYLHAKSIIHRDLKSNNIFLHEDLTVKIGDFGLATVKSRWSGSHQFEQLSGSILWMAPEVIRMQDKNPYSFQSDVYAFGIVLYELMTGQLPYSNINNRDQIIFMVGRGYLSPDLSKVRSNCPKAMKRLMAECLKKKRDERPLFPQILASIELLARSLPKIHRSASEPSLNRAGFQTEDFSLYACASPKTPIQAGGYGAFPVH
C-Raf Raf-1 (truncated), active, sequence (P04049 306-648 Y340D/Y341D): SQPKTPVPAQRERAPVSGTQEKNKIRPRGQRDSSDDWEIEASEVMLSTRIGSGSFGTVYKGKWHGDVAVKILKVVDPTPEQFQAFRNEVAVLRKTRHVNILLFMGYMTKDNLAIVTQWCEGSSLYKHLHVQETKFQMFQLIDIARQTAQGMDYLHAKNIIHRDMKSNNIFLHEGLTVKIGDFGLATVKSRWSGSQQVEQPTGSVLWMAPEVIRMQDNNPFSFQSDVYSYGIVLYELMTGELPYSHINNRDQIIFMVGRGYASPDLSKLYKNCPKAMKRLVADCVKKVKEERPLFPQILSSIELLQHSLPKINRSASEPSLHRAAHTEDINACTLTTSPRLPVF

| SMILES | IC50 [1] [nM] | IC50 [2] [nM] | IC50 [3] [nM] |
| --- | --- | --- | --- |
| CCOn1c(=O)c(-c2c(F)cccc2Cl)cc2cnc(Nc3ccc(N4CCN(C)CC4)cc3)nc21 [Compound 51, 6-(2-Chloro-6-fluorophenyl)-8-ethoxy-2-(4-(4-methylpiperazino)-phenylamino)-pyrido[2,3-d]pyrimidin-7-one] | < 100 | < 1000 | < 100 |
| CN1CCN(c2ccc(Nc3ncc4cc(-c5c(F)cccc5Cl)c(=O)n(OCC5CC5)c4n3)cc2)CC1 [Compound 52, 6-(2-Chloro-6-fluorophenyl)-8-cyclopropylmethoxy-2-(4-(4-methylpiperazino)-phenylamino)-pyrido[2,3-d]pyrimidin-7-one] | < 100 | < 1000 | < 100 |
| COn1c(=O)c(-c2c(F)cccc2C(F)(F)F)cc2cnc(Nc3ccc(N4CCN(C)CC4)cc3)nc21 [Compound 53, 6-(2-Fluoro-6-trifluoromethyl-phenyl)-8-methoxy-2-(4-(4-methylpiperazino)-phenylamino)-pyrido[2,3-d]pyrimidin-7-one] | < 1000 | < 1000 | < 1000 |
| COn1c(=O)c(-c2c(Cl)cccc2Cl)cc2cnc(Nc3cc(C(=O)O)n(C)c3)nc21 [Compound 54, 2-(5-Carboxy-1-methyl-pyrrol-3-yl)-amino-6-(2,6-dichlorophenyl)-8-methoxy-pyrido[2,3-d]pyrimidin-7-one] | < 100 | < 10000 | < 500 |
| NCCCOn1c(=O)c(-c2c(Cl)cccc2Cl)cc2cnc(Nc3ccccc3)nc21 [Compound 55, 8-(3-Aminopropyl)oxy-6-(2,6-dichlorophenyl)-2-phenylamino-pyrido[2,3-d]pyrimidin-7-one] | < 500 | < 1000 | < 500 |
| NCCCCCOn1c(=O)c(-c2c(Cl)cccc2Cl)cc2cnc(Nc3ccccc3)nc21 [Compound 56, 8-(5-Aminopentyl)oxy-6-(2,6-dichlorophenyl)-2-phenylamino-pyrido[2,3-d]pyrimidin-7-one] | < 100 | < 1000 | < 500 |
| CC(=O)NCCCOn1c(=O)c(-c2c(Cl)cccc2Cl)cc2cnc(Nc3ccccc3)nc21 [Compound 57, 8-(3-Acetylaminopropyl)oxy-6-(2,6-dichlorophenyl)-2-phenylamino-pyrido[2,3-d]pyrimidin-7-one] | < 100 | < 1000 | < 1000 |
| NCCOCCOn1c(=O)c(-c2c(Cl)cccc2Cl)cc2cnc(Nc3ccccc3)nc21 [Compound 58, 8-(2-(2-Aminoethyloxy)ethyl)oxy-6-(2,6-dichlorophenyl)-2-phenylamino-pyrido[2,3-d]pyrimidin-7-one] | < 500 | < 1000 | < 500 |
| COn1c(=O)c(-c2cc(NC(C)=O)ccc2Cl)cc2cnc(Nc3ccccc3)nc21 [Compound 59] | < 100 | < 10000 | < 500 |
| COc1ccc(OC)c(-c2cc3cnc(Nc4ccccc4)nc3n(OC)c2=O)c1 [Compound 60] | < 500 | < 10000 | < 10000 |
| COn1c(=O)c(C(=O)Nc2ccccc2)cc2cnc(Nc3ccccc3)nc21 [Compound 61, 8-Methoxy-2-phenylamino-6-phenylaminocarbonyl-pyrido[2,3-d]pyrimidin-7-one] | > 10000 | < 10000 | > 10000 |
| COn1c(=O)c(-c2cccc(NC(C)=O)c2)cc2cnc(Nc3ccccc3)nc21 [Compound 62] | < 100 | < 10000 | < 10000 |
| CC(C)(C)On1c(=O)c(-c2ccccc2Cl)cc2cnc(Nc3ccccc3)nc21 [Compound 63, 6-(2-Chlorophenyl)-8-(1,1-dimethyl)ethyloxy-2-phenylamino-pyrido[2,3-d]pyrimidin-7-one] | < 10000 | > 10000 | < 10000 |
| COn1c(=O)c(-c2ccc(Cl)c(Cl)c2)cc2cnc(Nc3cccc(S(N)(=O)=O)c3)nc21 [Compound 64, 2-(3-Aminosulfonlyphenyl)-amino-6-(3,4-dichlorophenyl)-8-methoxy-pyrido[2,3-d]pyrimidin-7-one] | < 500 | < 10000 | < 500 |
| COn1c(=O)c(-c2c(Cl)cccc2Cl)cc2cnc(Nc3cc(C(=O)NCCN(C)C)n(C)c3)nc21 [Compound 67, 6-(2,6-Dichlorophenyl)-2-(5-(2-dimethylaminoethyl)aminocarbonyl-1-methyl-pyrrol-3-yl)-amino-8-methoxy-pyrido[2,3-d]pyrimidin-7-one] | < 100 | < 1000 | < 100 |
| COCCOn1c(=O)c(-c2c(Cl)cccc2Cl)cc2cnc(Nc3cccc(OC)c3)nc21 [Compound 68, 6-(2,6-Dichlorophenyl)-8-(2-methoxyethyl)oxy-2-(3-methoxyphenyl)amino-pyrido[2,3-d]pyrimidin-7-one] | < 100 | < 1000 | < 500 |
| COc1cccc(Nc2ncc3cc(-c4c(C)cccc4C)c(=O)n(OC)c3n2)c1 [Compound 69, 6-(2,6-Dimethylphenyl)-8-methoxy-2-(3-methoxyphenyl)-amino-pyrido[2,3-d]pyrimidin-7-one] | < 100 | < 1000 | < 500 |
| COc1cccc(Nc2ncc3cc(-c4c(Cl)cccc4Cl)c(=O)n(OCCN)c3n2)c1 [Compound 70, 8-(2-Aminoethyl)oxy-6-(2,6-dichlorophenyl)-2-(3-methoxyphenyl)amino-pyrido[2,3-d]pyrimidin-7-one] | < 100 | < 1000 | < 500 |
| COc1cccc(Nc2ncc3cc(-c4c(Cl)cccc4Cl)c(=O)n(OCCCN)c3n2)c1 [Compound 71, 8-(3-Aminopropyl)oxy-6-(2,6-dichlorophenyl)-2-(3-methoxyphenyl)amino-pyrido[2,3-d]pyrimidin-7-one] | < 100 | < 1000 | < 100 |
| COc1cccc(Nc2ncc3cc(-c4c(Cl)cccc4Cl)c(=O)n(OCCO)c3n2)c1 [Compound 73, 6-(2,6-Dichlorophenyl)-8-(2-hydroxyethyl)oxy-2-(3-methoxyphenyl)amino-pyrido[2,3-d]pyrimidin-7-one] | < 100 | < 1000 | < 100 |
| CNCCOn1c(=O)c(-c2c(Cl)cccc2Cl)cc2cnc(Nc3cccc(OC)c3)nc21 [Compound 74, 6-(2,6-Dichlorophenyl)-8-(2-methylaminoethyl)oxy-2-(3-methoxyphenyl)amino-pyrido[2,3-d]pyrimidin-7-one] | < 500 | < 1000 | < 100 |
| COc1cccc(Nc2ncc3cc(-c4c(F)cccc4Cl)c(=O)n(OC[C@@H](O)CO)c3n2)c1 [Compound 75, 6-(2-Chloro-6-fluorophenyl)-8-(2-(S)-2,3-dihydroxypropyl)oxy-2-(3-methoxyphenyl)amino-pyrido[2,3-d]pyrimidin-7-one] | < 100 | < 1000 | < 100 |
| COc1cccc(Nc2ncc3cc(-c4c(Cl)cccc4Cl)c(=O)n(OCCN(C)C)c3n2)c1 [Compound 77, 6-(2,6-Dichlorophenyl)-8-(2-dimethylaminoethyl)oxy-2-(3-methoxyphenyl)amino-pyrido[2,3-d]pyrimidin-7-one] | < 500 | < 1000 | < 100 |
| CN1CCN(c2ccc(Nc3ncc4cc(-c5c(F)cccc5Cl)c(=O)n(O)c4n3)cc2)CC1 [Compound 241] | > 1000 | < 1000 | < 500 |

From patent US8518958B2, “Pyrido [2,3-D] pyrimidines and their use as kinase inhibitors” (Forma Therapeutics, Inc., priority 2006, dated 2013)
